Measured values as given in the supplement of paper PMC10307832.

Compound: CCN1CCC(CC1)N2C=C(N=N2)CNC3=CC4=C(C(=CN=C4C(=C3)Cl)C#N)NC5=CC(=C(C=C5)F)Cl [KIN001-266] + CC(=O)Nc1cccc(-n2c(=O)n(C3CC3)c(=O)c3c(Nc4ccc(I)cc4F)n(C)c(=O)c(C)c32)c1 [Trametinib] (partner 0.02 µM)
Assay: relative viability (nuclei count vs DMSO), 5 days (fraction); higher = more cells survive
Outline: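 Lung cancer cell lines in 1536-well plates were dosed by pin tool the day after seeding, either with one drug alone or with a fixed anchor-drug dose plus five library-drug doses (not always all listed) in √10 steps. After 5 days, cells were fixed and their nuclei stained in one step (final 0.05% Triton X-100, 1% formaldehyde, 1 ug/ml Hoechst), then counted on 4× images. Relative viability is the nuclei count in treated wells divided by that in vehicle wells. Values are medians of duplicate plates.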

Cell Line	relative viability (first compound 0.08 µM)	relative viability (first compound 0.253 µM)	relative viability (first compound 0.8 µM)	relative viability (first compound 2.53 µM)	relative viability (first compound 8 µM)
201T	0.74	0.724	0.686	0.708	0.754
A-427	0.823	0.73	0.711	0.618	0.658
BEN	1.01	1.01	1.07	1.03	1.15
CAL-12T	0.357	0.442	0.351	0.293	0.37
COR-L23	0.634	0.667	0.651	0.512	0.486
COR-L 105	0.42	0.517	0.417	0.43	0.455
ChaGo-K-1	0.914	0.915	0.87	0.637	0.459
EKVX	0.336	0.312	0.303	0.412	0.344
EMC-BAC-2	0.896	0.958	0.842	0.868	0.855
EPLC-272H	0.295	0.273	0.284	0.27	0.275
H3255	0.545	0.581	0.643	0.659	0.484
HARA	0.634	0.868	0.91	0.858	0.424
HCC-15	0.413	0.392	0.388	0.344	0.328
HCC-44	1.13	1.06	1.07	1.07	1.16
HCC-78	0.747	0.705	0.667	0.838	0.753
HCC-366	0.446	0.468	0.32	0.334	0.277
HCC-827	0.489	0.577	0.468	0.545	0.49
HOP-62	0.391	0.387	0.379	0.311	0.293
LC-2-ad	0.924	0.938	0.918	0.897	0.931
LCLC-97TM1	0.18	0.185	0.199	–	0.164
LCLC-103H	0.715	0.73	0.592	0.645	0.668
LK-2	0.891	0.781	0.877	0.847	0.721
LOU-NH91	0.83	0.753	0.698	0.727	0.748
LU99A	0.546	0.489	0.494	0.552	0.458

Cell Line	relative viability (first compound 0.08 µM)	relative viability (first compound 0.253 µM)	relative viability (first compound 0.8 µM)	relative viability (first compound 2.53 µM)	relative viability (first compound 8 µM)
LXF-289	0.678	0.683	0.683	0.679	0.708
NCI-H23	0.435	0.419	0.484	0.356	0.377
NCI-H322M	0.487	0.515	0.5	0.479	0.497
NCI-H358	0.174	0.17	0.138	0.115	0.117
NCI-H441	0.455	0.525	0.489	0.471	0.399
NCI-H460	0.204	0.225	0.121	0.135	0.108
NCI-H520	0.727	0.628	0.561	0.624	0.645
NCI-H596	0.742	0.698	0.851	0.778	0.673
NCI-H647	0.452	0.443	0.474	0.419	0.375
NCI-H650	0.982	0.974	0.942	0.944	0.979
NCI-H661	0.566	0.624	0.595	0.5	0.435
NCI-H727	0.431	0.384	0.391	0.391	0.402
NCI-H838	0.535	0.494	0.557	0.465	0.385
NCI-H1355	0.445	0.473	0.48	0.406	0.394
NCI-H1395	1.02	1.11	1.08	0.925	0.985
NCI-H1437	0.581	0.577	0.539	0.561	0.383
NCI-H1648	0.564	0.508	0.552	0.46	0.61
NCI-H1650	0.581	0.602	0.42	0.457	0.373
NCI-H1651	0.847	0.833	0.772	0.771	0.854
NCI-H1666	0.909	0.897	0.713	0.855	0.761
NCI-H1734	0.671	0.715	0.606	0.672	0.608
NCI-H1755	0.727	0.802	0.775	0.792	0.684
NCI-H1792	0.372	0.341	0.43	0.416	0.476
NCI-H1793	0.436	0.452	–	0.39	0.299

Cell Line	relative viability (first compound 0.08 µM)	relative viability (first compound 0.253 µM)	relative viability (first compound 0.8 µM)	relative viability (first compound 2.53 µM)	relative viability (first compound 8 µM)
NCI-H1915	0.312	0.302	0.298	0.293	0.223
NCI-H1944	0.419	0.401	0.324	0.393	0.41
NCI-H1975	0.435	0.343	0.346	0.461	0.325
NCI-H1993	0.559	0.52	0.478	0.475	0.522
NCI-H2009	0.296	0.313	0.273	0.23	0.253
NCI-H2023	0.51	0.578	0.533	0.447	0.456
NCI-H2085	0.569	0.457	0.567	0.558	0.541
NCI-H2087	0.254	0.276	0.16	0.175	0.175
NCI-H2126	0.583	0.554	0.621	0.568	0.518
NCI-H2170	0.969	0.872	0.96	0.934	0.822
NCI-H2228	0.564	0.448	0.457	0.357	0.402
NCI-H2342	0.922	0.868	0.848	1.01	1.22
NCI-H2347	0.304	0.323	0.282	0.278	0.22
NCI-H2405	0.64	0.658	0.661	0.615	0.61
NCI-H3122	0.234	0.218	0.223	0.232	0.292
PC-3 [JPC-3]	0.785	0.739	0.554	0.741	0.607
PC-14	0.715	0.729	0.808	0.518	0.141
RERF-LC-KJ	0.945	0.849	0.823	0.778	0.556
SK-LU-1	0.518	0.451	0.437	0.369	0.429
SK-MES-1	0.564	0.562	0.551	0.522	0.47
SW 900	0.83	0.727	1.02	0.812	0.324
SW 1573	0.575	0.493	0.603	0.557	0.464
UMC-11	0.741	0.711	0.718	0.506	0.774
